The text below walks through data of ChEMBL document CHEMBL3425490, “Activity of lipo-cyclic γ-AApeptides against biofilms of Staphylococcus epidermidis and Pseudomonas aeruginosa” (Bioorg Med Chem Lett, 2015).

For series [1], the system named is Staphylococcus epidermidis. Kind of series: Induction of pre-existing methicillin-resistant Staphylococcus epidermidis ATCC 35984 biofilm detachment after 24 hrs by crystal violet staining-based assay relative to control. It counts as functional, RP62A. More on the design: concentration or dose not given beside the values.
In series [2] the test system is Pseudomonas aeruginosa. Kind of series: Inhibition of biofilm formation of Pseudomonas aeruginosa ATCC 27853 after 24 hrs by crystal violet staining-based assay. It counts as functional.
Series [3] deals with Staphylococcus epidermidis. Kind of series: Inhibition of biofilm formation of methicillin-resistant Staphylococcus epidermidis ATCC 35984 after 24 hrs by crystal violet staining-based assay relative to control. In kind it is functional, RP62A.
Series [4] has as its system Pseudomonas aeruginosa. Kind of series: Antibacterial activity against Pseudomonas aeruginosa ATCC 27853 after 18 hrs by broth microdilution method. In kind it is functional. The settings on record: ATCC 27853, 18 h.
The subject of series [5] is Staphylococcus epidermidis. Kind of series: Antibacterial activity against methicillin-resistant Staphylococcus epidermidis ATCC 35984 after 18 hrs by broth microdilution method. It counts as functional. The settings on record: RP62A.
Series [6] can be described thus: Hemolytic activity in human RBC after 1 hr. It counts as ADME, cell-based, Erythrocyte. The settings on record: red blood cells (RBC).
Series [7] concerns Pseudomonas aeruginosa. Kind of series: Bactericidal activity against Pseudomonas aeruginosa ATCC 27853 assessed as decrease in log10CFU/ml at 12.5 to 50 ug/ml incubated for 6 hrs followed by plating measured after 24 hrs relative to control. It counts as functional.
Series [8] deals with Staphylococcus epidermidis. In words: Bactericidal activity against methicillin-resistant Staphylococcus epidermidis ATCC 35984 assessed as decrease in log10CFU/ml at 12.5 to 50 ug/ml incubated for 6 hrs followed by plating measured after 24 hrs relative to control. It counts as functional. The settings on record: for Activity: RP62A.
In series [9] the test system is Pseudomonas aeruginosa. In words: Induction of pre-existing Pseudomonas aeruginosa ATCC 27853 biofilm detachment after 24 hrs by crystal violet staining-based assay relative to control. It counts as functional. Set-up: concentration or dose not given beside the values.
Series [10] has as its system Pseudomonas aeruginosa. In words: microbe, parasite or virus in culture. The settings on record: 5761.
Description: Antibacterial activity against Pseudomonas aeruginosa 5761 by macrobroth dilution method
Series [11] concerns Pseudomonas aeruginosa. In words: microbe, parasite or virus in culture. The settings on record: 11683.
Description: Antibacterial activity against Pseudomonas aeruginosa 11683 by macrobroth dilution method
Series [12] concerns Pseudomonas aeruginosa. Kind of series: microbe, parasite or virus in culture. The settings on record: 8545.
Description: Antibacterial activity against Pseudomonas aeruginosa 8545 by macrobroth dilution method
Series [13] relates to Staphylococcus epidermidis. In words: microbe, parasite or virus in culture. The settings on record: RP62A.
Description: Antibacterial activity against oxacillin-susceptible Staphylococcus epidermidis ATCC 35984
The subject of series [14] is Staphylococcus epidermidis. Kind of series: microbe, parasite or virus in culture. The settings on record: RP62A. The source holds these as a separate data set.
Description: Antibacterial activity against oxacillin-resistant Staphylococcus epidermidis ATCC 35984
In series [15] the test system is Pseudomonas aeruginosa. In words: Inhibition of biofilm formation of Pseudomonas aeruginosa ATCC 27853 at 6.25 to 12.56 after 24 hrs by crystal violet staining-based assay relative to control. In kind it is functional.
In series [16] the test system is Staphylococcus epidermidis. Kind of series: Inhibition of biofilm formation of methicillin-resistant Staphylococcus epidermidis ATCC 35984 at 6.25 to 12.56 after 24 hrs by crystal violet staining-based assay relative to control. It counts as functional, RP62A.

In brackets after ≈: the same amount, converted by molar mass. Activity calls are given as the source filed them. No cut-off for these calls is given here.

On to `CCCCCCCCCCCCCCCC(=O)N(CC(N)=O)C[C@H](CCCCN)NC(=O)CN1C[C@H](Cc2ccccc2)NC(=O)CN(C(=O)CCc2ccccc2)C[C@H](CCCCN)NC(=O)CN(C(=O)CCc2ccccc2)C[C@H](CCCCN)NC(=O)CN(C(=O)CCc2ccccc2)C[C@H](CCCCN)NC(=O)CN(C(=O)CCc2ccccc2)C[C@H](CCCCN)NC(=O)CCC1=O`, for which the Activity in [1] turned out to be 10%; in series [9] it was 50%. The entries for the “inhibition (INH)” value in series [2] and in [3] were 60% and 40%, respectively. For the same compound, the MIC in [4] and in series [5] was 13 µM (≈ 24.9 µg/mL) each time. Besides, the HC50 at 1 h in [6] is 130 µM. Also, the outcome in series [7] and in series [8] was Active.

Take `O=C(O)c1cn(C2CC2)c2cc(N3CCNCC3)c(F)cc2c1=O` [CIPROFLOXACIN]: the Activity in [1] was 30%; in [9], 50%. Besides, the inhibition entry in [2] and in series [3] (RP62A) was “Active” in each case. For the same compound, the result in [7] and in series [8] was Active. Also, the MIC in [10] was 0.09 µg/mL (≈ 0.272 µM); in series [11], 0.09 µg/mL (≈ 0.272 µM); in [12] it was 0.09 µg/mL (≈ 0.272 µM); in series [13] it was 0.12 µg/mL (≈ 0.362 µM); in [14] it was 0.12 µg/mL (≈ 0.362 µM).

Consider `CCCCCCCCCCCCCCCC(=O)N(CC(N)=O)C[C@H](CCCCN)NC(=O)CN1C[C@H](Cc2ccccc2)NC(=O)CN(C(=O)CCc2ccccc2)C[C@H](CCCCN)NC(=O)CN(C(=O)CCc2ccccc2)C[C@H](CCCCN)NC(=O)CN(C(=O)CCc2ccccc2)C[C@H](CCCCN)NC(=O)CCC1=O`, for which the Activity in series [1] was 10%; in series [9] it was 60%. For the same compound, the figures for the “inhibition (INH)” value in [2] and in [3] were 60% and 40%, respectively. Further, the MIC amounted to 12 µM (≈ 19.3 µg/mL) in series [4] and 1 µM (≈ 1.61 µg/mL) in series [5]. In series [6], the HC50 at 1 h is 160 µM.

For `CCCCCCCCCCCCCCCC(=O)N(CC(N)=O)C[C@H](CCCCN)NC(=O)CN1C[C@H](Cc2ccccc2)NC(=O)CN(C(=O)CCCN)C[C@H](Cc2ccccc2)NC(=O)CN(C(=O)CCCN)C[C@H](Cc2ccccc2)NC(=O)CN(C(=O)CCc2ccccc2)C[C@H](CCCCN)NC(=O)CCC1=O`, the results for the MIC in series [4] and in series [5] were 6 µM (≈ 9.32 µg/mL) and 0.6 µM (≈ 0.932 µg/mL), respectively. The 50% haemolytic concentration (HC50) at 1 h in [6] worked out at 129 µM.

Take `CCCCCCCCCCCCCCCC(=O)N(CC(N)=O)C[C@H](CCCCN)NC(=O)CN1C[C@H](Cc2ccccc2)NC(=O)CN(C(=O)CCc2ccccc2)C[C@H](CCCCN)NC(=O)CN(C(=O)CCCN)C[C@H](Cc2ccccc2)NC(=O)CN(C(=O)CCCN)C[C@H](Cc2ccccc2)NC(=O)CN(C(=O)CCc2ccccc2)C[C@H](CCCCN)NC(=O)CCC1=O`: the values for the Activity in [1] and in [9] were 10% and 50%, respectively. In addition, the “inhibition (INH)” value in [2] amounted to 60%; in series [3] it was 40%. The MIC was found to be 14 µM (≈ 26 µg/mL) in series [4] and 3 µM (≈ 5.57 µg/mL) in series [5]. Further, the 50% haemolytic concentration (HC50) at 1 h in series [6] turned out to be 82 µM.

For `CCCCCCCCCCCCCCCC(=O)N(CC(N)=O)C[C@H](CCCCN)NC(=O)CN1C[C@H](Cc2ccccc2)NC(=O)CN(C(=O)CCCN)C[C@H](Cc2ccccc2)NC(=O)CN(C(=O)CCCN)C[C@H](Cc2ccccc2)NC(=O)CN(C(=O)CCCN)C[C@H](Cc2ccccc2)NC(=O)CCC1=O`, the values for the Activity in series [1] and in [9] were 30% and 50%, respectively. In addition, the MIC in series [4] was determined as 3 µM (≈ 4.58 µg/mL); in series [5] it was 0.6 µM (≈ 0.915 µg/mL). Also, the HC50 at 1 h in series [6] is 65 µM. For the same compound, the deltalog10CFU was determined as 6 in series [7] and 8 in [8]. Moreover, the “inhibition (INH)” value amounted to 80% in series [15] and 70% in [16].

Consider `CCCCCCCCCCCCCCCC(=O)N(CC(N)=O)C[C@H](CCCCN)NC(=O)CN1C[C@H](Cc2ccccc2)NC(=O)CN(C(=O)CCc2ccccc2)C[C@H](CCCCN)NC(=O)CN(C(=O)CCCN)C[C@H](Cc2ccccc2)NC(=O)CN(C(=O)CCc2ccccc2)C[C@H](CCCCN)NC(=O)CCC1=O`, for which the Activity in series [1] is reported as 10%; in series [9], 50%. In addition, the “inhibition (INH)” value in series [2] is given as 60%; in series [3], 40%. For the same compound, the MIC stood at 6 µM (≈ 9.49 µg/mL) in [4] and 3 µM (≈ 4.74 µg/mL) in series [5]. Also, the HC50 at 1 h in series [6] came out at 114 µM. In addition, the outcome in series [7] and in [8] was Active.
